Patent publication US10857227B2, “Immunostimulatory compositions” (ASSISTANCE PUBLIQUE-HOPITAUX DE PARIS, priority 2015, dated 2020)
Where no end group is shown, it is not given here. [ ]: non-standard residue; d: D form. Dopa = N[C@@H](Cc1ccc(O)c(O)c1)C(=O)O

Legend:
[1] = tested on: total splenocytes restimulated with MHC class-1 epitope KVPRNQDWL (human gp100); assay type: in vivo, C57-B16 mice; details: for CD8 immune response with various melanin precursors: 10 μg hgp100 epitope co-incubated with melanin precursor, pH 8.5 Tris, + 10 μg CpG-28, subcutaneous; for number of IFNy-secreting lymphocytes mean +/− SD: gp100 peptide 10 μg/mouse + L-Dopa 40 μg/mouse incubated 18 hours aerated, mixed with the TLR9 agonist
Protocol: (§1) […] After 2 immunizations, the CD8+immune response was evaluated on day 14 using a gamma interferon (IFNg)-secretion Elispot assay, after restimulation of total splenocytes with the relevant MHC class-1 epitope ([…] (SEQ ID NO: 2) for Ovalbumine or […] (SEQ ID NO: 3) for human gp100)

[2] = tested on: total splenocytes restimulated with MHC class-1 epitope SIINFEKL (Ovalbumine); assay: IFNg-secretion Elispot of splenocytes after immunization, restimulation with Ovalbumine epitope; assay type: in vivo, C57-B16 mice; details: for immune response, Dopamine as melanin precursor: peptides with Dopamine; for CD8 immune response (IFNg spots): Ovalbumine epitope alone or mixed with 10 μg DOPA, with or without 18 hours oxygen incubation, + CpG-28; for CD8 immune response (IFNg spots) / CD8 / CTL immune response: day 14; for CD8 / CTL immune response: 1 μg peptide + 10 μg CpG-28, day 0 & day 7; for immune response after 2 immunizations, Dopa as melanin precursor: 3.6 μg peptide co-incubated 18 hours with 100 μg DOPA pH 8.5
Protocol: as §1

[3] = tested on: MHC I epitope of Trp2 (VYDFFVWL); assay: CD8 immune response to Trp2 epitope variants co-incubated with L-Dopa; assay type: in vivo, mice; details: peptide 10 μg/mouse co-incubated with L-Dopa 100 μg/mouse, then mixed to CpG-28 10 μg/mouse; immunized once; day 8
Protocol: (§2) C57-B16, 5-week old, mice were immunized twice (on day 1 and day 7) with the different formulations combined to a Toll-like Receptor 9 (TLR-9) agonist (10 μg of the CpG-28 oligonucleotide, […] (SEQ ID NO: 1)). After 2 immunizations, the CD8+immune response was evaluated on day 14 using a gamma interferon (IFNg)-secretion Elispot assay, after restimulation of total splenocytes with the relevant MHC class-1 epitope ([…] (SEQ ID NO: 2) for Ovalbumine or […] (SEQ ID NO: 3) for human gp100)
(§3) Adding arginines (R) or lysines (K) to the NH2-terminal end of the peptides enhanced the immune response when compared to unmodified Trp2 (animals were immunized once with formulations consisting of the peptide (10 μg/mouse) co-incubated with L-Dopa (100 μg/mouse), then mixed to CpG-28 (10 μg/mouse). The CD8 immune responses were assessed on day 8).

[4] = tested on: IFNγ-secreting lymphocytes; assay: Elispot after immunization with formulations oxidized by different agents (Example 2, Table 1); assay type: in vivo, mice; details: H2O2 or ammonium persulfate as oxidant
Protocol: as §2
Other oxidizing agents such as hydrogen peroxide (H2O2) or ammonium persulfate (APS) can be used (FIG. 3).

[5] = Solubility and stability of oxidized Dopa or Dopamine solutions; assay type: physicochemical; details: for precipitation under centrifugation: 2 mg/ml oxidized solution, Dopa: oxygen at pH8.5, 16 000 g for 30 minutes; for aggregates under light microscopy: 2 mg/ml solution oxidized 20 hours, with or without pOVA 0.1 mg/ml
Protocol: Dopa (2 mg/ml) or Dopamine (2 mg/ml) solutions were incubated with or without the pOVA (0.1 mg/ml) at pH 7.4 or 8.5, and with different oxidizing agents (O2, ammonium persulfate) for 20 hours. All solutions darkened within a few hours. […] Under centrifugation, the dopamine solutions precipitated, and some dark material remained adherent to the tubes.

[6] = tested on: viral epitope gPr73 (SFAVATTAL); assay: CD8 immune response to viral epitope gPr73 variants co-incubated with L-Dopa; assay type: in vivo; details: Balb/c mice; peptide co-incubated with L-Dopa, mixed to CpG-28
Protocol: as §3
Similar data were obtained with a viral epitope in Balb/c mice (gPr73: SFAVATTAL, SEQ ID NO: 8). […] In both cases, if a glutamate (E) was added next to the lysine, the efficacy was reduced (Table 2).

[7] = 10 kD filtration and SDS-PAGE of melanin-EphA2 complex; assay type: physicochemical
Protocol: FIG. 11: SDS-PAGE (16% polyacrylamide gel) of various preparations: lane MW: molecular weight marker; lane “Ctrl EphA2”: control peptide EphA2 alone (SEQ ID NO: 9); lane “Filtrate”: filtrate of complex melanin-EphA2 after filtration on a 10 kD filter; lane “Retentate”: retentate of complex melanin-EphA2 after filtration on a 10 kD filter, resuspension, dissolution and heating in loading buffer containing SDS. (Melanin-EphA2 was obtained by co-incubating EphA2 peptide with L-Dopa (weight ration 1:10) in arerated conditions)
A solution of L-Dopa was mixed with an EPHA2 peptide ([…], SEQ ID NO: 9) at a weight ratio L-Dopa:epitope of 1:4. The mixture was then oxidized at pH 8.5 in aerated conditions.

[8] = Thin-layer chromatography of peptide and oxidized Dopa (complex formation); assay type: physicochemical; details: 72-hour incubation pH 8.5; hgp100 1 mg/ml, Dopa 10 mg/ml
Protocol: FIG. 8: Thin-layer chromatography (TLC) after a 72-hour incubation at pH 8.5 (Tris buffer). Left: hgp100 (SEQ ID NO: 3). only; middle: hgp100 (1 mg/ml) and Dopa (10 mg/ml), co-incubated with O2; right: hgp100 (1 mg/ml) added after Dopa (10 mg/ml) had been incubated with O2. […] (TLC was performed on aluminium foils, coated with a thin layer of silica gel as the stationary phase. After the samples have been loaded, a mixture of 1-Butanol/acetic acid/H2O (2/1/1) was used as the mobile phase. The TLC plates were then sprayed with ninhydrin reagent)
FIG. 9: Thin-layer chromatography (TLC) after a 72-hour incubation at pH 8.5 (Tris buffer). Left: hgp100 (, SEQ ID NO: 3) only; other lanes: hgp100 (1 mg/ml) incubated with various doses of Dopa (Dopa/hgp100 weight ratios: from 1/5 to 10/1). […] (TLC: similar conditions as FIG. 8).
In vitro experiments with Thin-layer chromatography (TLC) support the hypothesis that the incubation of the peptide while the catechol is being oxidized modifies the characteristic of the final formulation and that a complex is formed between the two entities (FIG. 8).

[9] = tested on: anti-ovalbumine antibodies; assay: Humoral response: anti-ovalbumine antibody titers; assay type: in vivo, C57/Bml6 mice; details: day 14
Protocol: Ovalbumin protein (1 μg) was mixed to Dopa (1 μg) at pH 7.4, incubated for 4 hours with APS (0.3 μg), and injected subcutaneously with 10 μg in C57/Bml6 mice on day 0 and day 7.

[10] = 1 μg mixed to Dopa 1 μg pH 7.4, 4 hours APS 0.3 μg, subcutaneous day 0 and day 7

For `Oc1cccc2cccc(O)c12` [di-hydroxynaphtalene], which “CD8 immune response with various melanin precursors” value ([1]; 18 hours oxygen) is on record?
The value was “significant CD8 immune response”.

With `NC(Cc1cc(O)c(O)cc1O)C(=O)O` (stereo not shown) [6-hydroxydopa, 6-Hydroxy-DOPA] as the molecule, how does the “CD8 immune response with various melanin precursors” value ([1]; 18 hours oxygen) read?
Its value is “significant CD8 immune response”.

With `CC(C)(C)OC(=O)N[C@@H](Cc1ccc(O)c(O)c1)C(=O)O` [Boc-Dopa, N-(tert-Butyloxycarbonyl)-L-dopa] as the molecule, how does the “CD8 immune response with various melanin precursors” value ([1]; 18 hours oxygen) read?
The value was “reduced magnitude”.

With “SMLVLLPDEVSGLEQLESIINFEKLTEWTS (long OVA peptide) [SEQ ID NO:4]” as the molecule, how does the “immune response, Dopamine as melanin precursor” value [2] read?
The value was “highest immune response”.

With VYDFFVWL (MHC I epitope of Trp2) as the molecule, how does the “number of IFNy-secreting lymphocytes mean +/− SD” value [3] read?
The value was 30 +/− 34.

Which “number of IFNy-secreting lymphocytes mean +/− SD” value [1] does the source give for TCCATGACGTTCCTGACGTT [compound 1826] here?
The value was 134 +/− 54.

What does the source list for `N[C@@H](Cc1ccc(O)c(O)c1)C(=O)O` [L-Dopa, L-3,4-dihydroxyphenylalanine]?
optimal molar ratio of oxidant/Dopa for vaccine efficacy [4]: around 1/4; CD8 immune response ([1]; 10 μg hgp100 epitope co-incubated with 100 μg DOPA pH 8.5, 18 hours oxygen, + CpG-28): significant CD8 immune response; CD8 immune response with various melanin precursors ([1]; 18 hours oxygen): significant CD8 immune response; CD8 immune response (IFNg spots) [2]: able to induce IFNg spots; precipitation under centrifugation [5]: did not precipitate; aggregates under light microscopy [5]: no aggregates can be seen; filterability of the oxidized solution ([5]; incubated with oxygen at pH8.5): can be filtered through a 0.2 μm filter, but not through a 100 kDalton-cut off filter; stability of the oxidized solution ([5]; incubated with oxygen at pH8.5): stable for several weeks

For “pOVA-D: Ovalbumine epitope synthesized with a DOPA at the end of the peptide (SIINFEKL[Dopa])”, which “CD8 / CTL immune response” value [2] is on record?
Its value is “strong CTL immune responses”.

What does the source list for “SMLVLLPKKVSGLKQLESIINFEKLTKWTS (positive long OVA peptide) [SEQ ID NO: 6, long OVA peptide modified to be positively charged]”?
immune response after 2 immunizations, Dopa as melanin precursor ([2]; + 10 μg CpG-28): strong; immune response, Dopamine as melanin precursor [2]: lowest one

For `N[C@H](Cc1ccc(O)c(O)c1)C(=O)O` [D-Dopa, D-3,4-dihydroxyphenylalanine], which “CD8 immune response with various melanin precursors” value ([1]; 18 hours oxygen) is on record?
The value was “significant CD8 immune response”.

Which results are given for “TAAACGTTATAACGTTACGACGTCAT (listed as DNA, chemistry not given here) [CpG-28]”?
immune responses, adjuvant added before versus after oxidation ([1]; L-DOPA 100 μg + hgp100 epitope, 18 hours oxygen): similar; number of IFNy-secreting lymphocytes mean +/− SD [1]: 211 +/− 83

For “D-pOVA: Ovalbumine epitope synthesized with a DOPA at the beginning of the peptide ([Dopa]SIINFEKL)”, which “CD8 / CTL immune response” value [2] is on record?
Its value is “strong CTL immune responses”.

For SFAVATTAL (Viral epitope of gPr73), which “number of IFNy-secreting lymphocytes mean +/− SD” value [6] is on record?
The value was 5 +/− 4.

With TGACTGTGAACGTTCGAGATGA [ISS] as the molecule, how does the “number of IFNy-secreting lymphocytes mean +/− SD” value [1] read?
Its value is 147 +/− 63.

For SIINFEKL [pOVA], which “CD8 / CTL immune response” value [2] is on record?
Its value is “did not trigger any significant CD8 immune response”.

What about the “CD8 immune response (IFNg spots)” value [2] of the same molecule?
The value was “did not trigger any significant CD8 immune response”.

What about the “amount of epitope sufficient to detect an immune response” value ([2]; epitope with DOPA model, data not shown) of the same molecule?
The value was ≤ 10 ng.

Which results are given for “SMLVLLPKSVSGLSQLESIINFEKLTSWTS (neutral long OVA peptide) [SEQ ID NO: 5, long OVA peptide modified to be neutral]”?
immune response after 2 immunizations, Dopa as melanin precursor ([2]; + 10 μg CpG-28): intermediate; immune response, Dopamine as melanin precursor [2]: intermediate

Which results are given for `NCCc1ccc(O)c(O)c1` [Dopamine]?
CD8 immune response with various melanin precursors ([1]; 18 hours oxygen): reduced magnitude; CTL immune response ([2]; long OVA peptide combined to Dopamine, incubated 4 hours with APS, + 10 μg CpG-28): triggered an immune response; precipitation under centrifugation [5]: precipitated; aggregates under light microscopy [5]: large aggregates were seen under light microscopy

Which “peptide from retentate heated in loading buffer containing SDS (SDS-page)” value ([7]; 16% polyacrylamide gel) does the source give for “FSHHNIIRL (also: oxidized with L-Dopa to melanin) [EPHA2 peptide]” here?
Its value is “got dissociated from melanin”.

What about the “peptide in the filtrate after 10 kD filtration” value ([7]; peptide oxidized with L-Dopa at pH 8.5 in aerated conditions) of the same molecule?
The value was “no peptide could detected in the filtrate”.

With “KVPRNQDWL (human gp100 epitope) [hgp100]” as the molecule, how does the “mean number of IFNγ-secreting lymphocytes +/−SD” value ([1]; C57BL/6 mice, gp100 10 μg/mouse, with or without L-Dopa 40 μg/mouse (18 hours aerated), combined to poly I:C 10 μg/mouse) read?
The value was 1+/−1.

And the “minimal dose of the epitope required to induce CTLs” value ([1]; gp100-melanin formulation)?
The value was 0.5 µg.

What about the “IFNγ-secreting lymphocytes when combined with CpG” value ([1]; mixed with TLR9 agonist CpG-28, n=8 mice/group) of the same molecule?
Its value is “not”.

What about the “CTL response, epitope added after L-Dopa had been oxidized instead of before” value ([1]; mouse, in vivo) of the same molecule?
Its value is “a reduction in the CTL response was observed”.

And the “free peptide on TLC, Dopa and peptide co-incubated with oxidizing agent” value [8]?
The value was “not seen any more and not”.

What about the “free peptide on TLC, peptide added after Dopa had been oxidized” value [8] of the same molecule?
The value was “Free peptide was seen”.

B1: Ovalbumin protein: Ovalbumin protein mixed to Dopa at pH 7.4 and incubated with APS (composition melanin/antigen) (protein)
chain: GSIGAASMEFCFDVFKELKVHHANENIFYCPIAIMSALAMVYLGAKDSTRTQINKVVRFDKLPGFGDSIEAQCGTSVNVHSSLRDILNQITKPNDVYSFSLASRLYAEERYPILPEYLQCVKELYRGGLEPINFQTAADQARELINSWVESQTNGIIRNVLQPSSVDSQTAMVLVNAIVFKGLWEKAFKDEDTQAMPFRVTEQESKPVQMMYQIGLFRVASMASEKMKILELPFASGTMSMLVLLPDEVSGLEQLESIINFEKLTEWTSSNVMEERKIKVYLPRMKMEEKYNLTSVLMAMGITDVFSSSANLSGISSAESLKISQAVHAAHAEINEAGREVVGSAEAGVDAASVSEEFRADHPFLFCIKHIATNAVLFFGRCVSP
With B1 as the molecule, how does the “titer of anti-ovalbumine antibodies IgG1” value [9, 10] read?
Its value is 1/8000.

And the “titer of anti-ovalbumine antibodies IgG2b” value [9, 10]?
Its value is 1/5250.

And the “type of immune response (IgG subtypes)” value [9]?
The value was “mixed Th1 and Th2 immune response”.
